From the supplement of paper PMC8741786
In brackets after ≈: the same amount, converted by molar mass.

Test system: Neisseria subflava/flavescens/perflava
Test: minimum inhibitory concentration (ETEST)
Experimental: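 Oropharyngeal Neisseria isolates from MSM and employees in Belgium were identified to species by MALDI-TOF MS. MICs of azithromycin, ceftriaxone and ciprofloxacin were determined by ETEST on GC agar after 24 h at 36.5 °C and 5-7% CO2, in mg/L. Values beyond the strip range are reported as >256 (azithromycin) or <0.016 (ceftriaxone); isolates that did not grow are NA.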

CC[C@H]1OC(=O)[C@H](C)[C@@H](O[C@H]2C[C@@](C)(OC)[C@@H](O)[C@H](C)O2)[C@H](C)[C@@H](O[C@@H]2O[C@H](C)C[C@H](N(C)C)[C@H]2O)[C@](C)(O)C[C@@H](C)CN(C)[C@H](C)[C@@H](O)[C@]1(C)O [azithromycin]
Conditions	minimum inhibitory concentration [µg/mL]
isolate id (sample isolate): 19041762_1, population: MSM, antibiotic use in previous 6 months: Yes	> 256
isolate id (sample isolate): 19041762_1.1, population: MSM, antibiotic use in previous 6 months: Yes	> 256
isolate id (sample isolate): 19041780_1, population: MSM, antibiotic use in previous 6 months: Yes	> 256
isolate id (sample isolate): 19042150_1, population: MSM, antibiotic use in previous 6 months: Yes	64 (≈ 85.4 µM)
isolate id (sample isolate): 19042150_3, population: MSM, antibiotic use in previous 6 months: Yes	> 256
isolate id (sample isolate): 19042756_1, population: MSM, antibiotic use in previous 6 months: Yes	> 256
isolate id (sample isolate): 19042756_2, population: MSM, antibiotic use in previous 6 months: Yes	> 256
isolate id (sample isolate): 19043201_1.1, population: MSM, antibiotic use in previous 6 months: No	96 (≈ 128 µM)
isolate id (sample isolate): 19043201_2.1, population: MSM, antibiotic use in previous 6 months: No	> 256
isolate id (sample isolate): 19043201_3, population: MSM, antibiotic use in previous 6 months: No	96 (≈ 128 µM)
isolate id (sample isolate): 19043274_3, population: MSM, antibiotic use in previous 6 months: Yes	128 (≈ 171 µM)
isolate id (sample isolate): 19050474_1, population: MSM, antibiotic use in previous 6 months: No	8 (≈ 10.7 µM)
isolate id (sample isolate): 19050514_1, population: MSM, antibiotic use in previous 6 months: Yes	> 256
isolate id (sample isolate): 19050949_1, population: MSM, antibiotic use in previous 6 months: No	3 (≈ 4.01 µM)
isolate id (sample isolate): 19050949_2, population: MSM, antibiotic use in previous 6 months: No	4 (≈ 5.34 µM)
isolate id (sample isolate): 19050949_2.1, population: MSM, antibiotic use in previous 6 months: No	4 (≈ 5.34 µM)
isolate id (sample isolate): 19051904_2, population: MSM, antibiotic use in previous 6 months: Yes	2 (≈ 2.67 µM)
isolate id (sample isolate): 19051904_3, population: MSM, antibiotic use in previous 6 months: Yes	1.5 (≈ 2 µM)
isolate id (sample isolate): 19052394_1, population: MSM, antibiotic use in previous 6 months: Yes	2 (≈ 2.67 µM)
isolate id (sample isolate): 19052394_1.1, population: MSM, antibiotic use in previous 6 months: Yes	1.5 (≈ 2 µM)
isolate id (sample isolate): 19060089_1, population: MSM, antibiotic use in previous 6 months: Yes	8 (≈ 10.7 µM)
isolate id (sample isolate): 19062994_1, population: MSM, antibiotic use in previous 6 months: Yes	2 (≈ 2.67 µM)
isolate id (sample isolate): Co000761_2, population: general population, antibiotic use in previous 6 months: No	2 (≈ 2.67 µM)
isolate id (sample isolate): Co000761_3, population: general population, antibiotic use in previous 6 months: No	4 (≈ 5.34 µM)
isolate id (sample isolate): Co000761_5, population: general population, antibiotic use in previous 6 months: No	6 (≈ 8.01 µM)
isolate id (sample isolate): Co000761_6, population: general population, antibiotic use in previous 6 months: No	3 (≈ 4.01 µM)
isolate id (sample isolate): Co000762_3, population: general population, antibiotic use in previous 6 months: No	6 (≈ 8.01 µM)
isolate id (sample isolate): Co000762_4, population: general population, antibiotic use in previous 6 months: No	4 (≈ 5.34 µM)
isolate id (sample isolate): Co000763_2, population: general population, antibiotic use in previous 6 months: No	2 (≈ 2.67 µM)
isolate id (sample isolate): Co000764_1, population: general population, antibiotic use in previous 6 months: No	8 (≈ 10.7 µM)
isolate id (sample isolate): Co000764_2, population: general population, antibiotic use in previous 6 months: No	8 (≈ 10.7 µM)
isolate id (sample isolate): Co000765_2, population: general population, antibiotic use in previous 6 months: No	3 (≈ 4.01 µM)
isolate id (sample isolate): Co000765_3, population: general population, antibiotic use in previous 6 months: No	3 (≈ 4.01 µM)
isolate id (sample isolate): Co000765_4, population: general population, antibiotic use in previous 6 months: No	3 (≈ 4.01 µM)
isolate id (sample isolate): Co000766_1, population: general population, antibiotic use in previous 6 months: No	6 (≈ 8.01 µM)
isolate id (sample isolate): Co000766_3, population: general population, antibiotic use in previous 6 months: No	1 (≈ 1.34 µM)
isolate id (sample isolate): Co000767_1, population: general population, antibiotic use in previous 6 months: No	1 (≈ 1.34 µM)
isolate id (sample isolate): Co000767_2, population: general population, antibiotic use in previous 6 months: No	6 (≈ 8.01 µM)
isolate id (sample isolate): Co000767_4, population: general population, antibiotic use in previous 6 months: No	1.5 (≈ 2 µM)
isolate id (sample isolate): Co000767_5, population: general population, antibiotic use in previous 6 months: No	1.5 (≈ 2 µM)
isolate id (sample isolate): Co000767_6, population: general population, antibiotic use in previous 6 months: No	0.75 (≈ 1 µM)
isolate id (sample isolate): Co000767_7, population: general population, antibiotic use in previous 6 months: No	1.5 (≈ 2 µM)
isolate id (sample isolate): Co000768_1, population: general population, antibiotic use in previous 6 months: No	2 (≈ 2.67 µM)
isolate id (sample isolate): Co000768_2, population: general population, antibiotic use in previous 6 months: No	3 (≈ 4.01 µM)
isolate id (sample isolate): Co000769_1, population: general population, antibiotic use in previous 6 months: No	4 (≈ 5.34 µM)
isolate id (sample isolate): Co000769_2, population: general population, antibiotic use in previous 6 months: No	2 (≈ 2.67 µM)
isolate id (sample isolate): Co000769_4, population: general population, antibiotic use in previous 6 months: No	4 (≈ 5.34 µM)
isolate id (sample isolate): Co000770_2, population: general population, antibiotic use in previous 6 months: No	2 (≈ 2.67 µM)
isolate id (sample isolate): Co000770_4, population: general population, antibiotic use in previous 6 months: No	4 (≈ 5.34 µM)
isolate id (sample isolate): Co000770_6, population: general population, antibiotic use in previous 6 months: No	3 (≈ 4.01 µM)
isolate id (sample isolate): Co000771_2, population: general population, antibiotic use in previous 6 months: No	6 (≈ 8.01 µM)
isolate id (sample isolate): Co000771_3, population: general population, antibiotic use in previous 6 months: No	6 (≈ 8.01 µM)
isolate id (sample isolate): Co000771_5, population: general population, antibiotic use in previous 6 months: No	3 (≈ 4.01 µM)
isolate id (sample isolate): Co000772_1, population: general population, antibiotic use in previous 6 months: No	2 (≈ 2.67 µM)
isolate id (sample isolate): Co000772_2, population: general population, antibiotic use in previous 6 months: No	3 (≈ 4.01 µM)
isolate id (sample isolate): Co000772_4, population: general population, antibiotic use in previous 6 months: No	4 (≈ 5.34 µM)
isolate id (sample isolate): Co000772_5, population: general population, antibiotic use in previous 6 months: No	3 (≈ 4.01 µM)
isolate id (sample isolate): Co000772_6, population: general population, antibiotic use in previous 6 months: No	4 (≈ 5.34 µM)
